ChEMBL document CHEMBL5291721, “A preclinical secondary pharmacology resource illuminates target-adverse drug reaction associations of marketed drugs” (Nat Commun, 2023)

What was measured:
Androgen receptor = target: T1, Androgen receptor (Homo sapiens, UniProt P10275)
T1 sequence (P10275 whole entry): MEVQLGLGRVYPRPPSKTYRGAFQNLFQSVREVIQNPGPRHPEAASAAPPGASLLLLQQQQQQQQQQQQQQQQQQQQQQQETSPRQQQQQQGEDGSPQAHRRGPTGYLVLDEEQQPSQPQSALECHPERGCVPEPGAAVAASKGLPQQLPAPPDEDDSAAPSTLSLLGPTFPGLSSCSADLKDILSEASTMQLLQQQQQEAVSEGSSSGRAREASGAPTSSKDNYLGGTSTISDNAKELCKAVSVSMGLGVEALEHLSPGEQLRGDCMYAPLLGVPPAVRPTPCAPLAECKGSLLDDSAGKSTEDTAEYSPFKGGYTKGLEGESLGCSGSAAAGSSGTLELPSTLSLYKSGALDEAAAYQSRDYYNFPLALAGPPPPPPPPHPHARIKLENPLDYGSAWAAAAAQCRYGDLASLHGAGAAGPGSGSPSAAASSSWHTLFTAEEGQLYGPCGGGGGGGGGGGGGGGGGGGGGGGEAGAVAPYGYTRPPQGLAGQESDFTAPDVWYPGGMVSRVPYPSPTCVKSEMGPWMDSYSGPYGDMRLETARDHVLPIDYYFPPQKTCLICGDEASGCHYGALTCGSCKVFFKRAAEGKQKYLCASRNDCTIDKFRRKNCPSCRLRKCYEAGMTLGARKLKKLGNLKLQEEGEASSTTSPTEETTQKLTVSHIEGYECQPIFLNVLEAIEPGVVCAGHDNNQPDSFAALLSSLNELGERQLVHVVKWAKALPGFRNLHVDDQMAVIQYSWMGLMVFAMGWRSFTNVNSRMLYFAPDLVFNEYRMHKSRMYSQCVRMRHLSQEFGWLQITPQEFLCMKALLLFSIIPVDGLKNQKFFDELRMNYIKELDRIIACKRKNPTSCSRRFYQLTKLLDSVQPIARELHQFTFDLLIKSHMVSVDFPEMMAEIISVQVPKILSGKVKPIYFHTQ

Estrogen receptor = target: T2, Estrogen receptor (Homo sapiens, UniProt P03372)
T2 sequence (P03372 whole entry): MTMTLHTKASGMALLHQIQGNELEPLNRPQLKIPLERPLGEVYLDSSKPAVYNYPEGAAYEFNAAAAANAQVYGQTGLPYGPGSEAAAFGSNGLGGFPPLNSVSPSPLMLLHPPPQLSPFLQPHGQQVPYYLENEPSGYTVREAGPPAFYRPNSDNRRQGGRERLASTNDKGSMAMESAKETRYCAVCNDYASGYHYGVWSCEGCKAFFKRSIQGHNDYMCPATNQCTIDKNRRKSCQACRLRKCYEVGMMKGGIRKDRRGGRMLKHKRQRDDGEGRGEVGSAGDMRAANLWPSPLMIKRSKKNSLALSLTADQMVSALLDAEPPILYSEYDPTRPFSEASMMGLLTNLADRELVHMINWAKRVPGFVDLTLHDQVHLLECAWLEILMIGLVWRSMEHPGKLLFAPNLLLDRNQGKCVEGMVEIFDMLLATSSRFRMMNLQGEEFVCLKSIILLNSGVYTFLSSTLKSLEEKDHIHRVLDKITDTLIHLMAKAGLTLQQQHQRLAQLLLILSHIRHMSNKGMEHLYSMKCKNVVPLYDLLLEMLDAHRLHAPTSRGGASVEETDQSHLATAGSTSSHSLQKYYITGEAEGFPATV

[1] = target: Sodium channel protein type 5 subunit alpha (Homo sapiens, UniProt Q14524); assay type: functional, cell-based
[2] = target: Gamma-aminobutyric acid receptor subunit alpha-1/alpha-2/beta-2/gamma-2 (Homo sapiens, UniProt P14867+P18507+P47869+P47870); assay type: protein-complex assay
[3] = target: T3, Peroxisome proliferator-activated receptor gamma (Homo sapiens, UniProt P37231); assay type: functional
T3 sequence (P37231 whole entry): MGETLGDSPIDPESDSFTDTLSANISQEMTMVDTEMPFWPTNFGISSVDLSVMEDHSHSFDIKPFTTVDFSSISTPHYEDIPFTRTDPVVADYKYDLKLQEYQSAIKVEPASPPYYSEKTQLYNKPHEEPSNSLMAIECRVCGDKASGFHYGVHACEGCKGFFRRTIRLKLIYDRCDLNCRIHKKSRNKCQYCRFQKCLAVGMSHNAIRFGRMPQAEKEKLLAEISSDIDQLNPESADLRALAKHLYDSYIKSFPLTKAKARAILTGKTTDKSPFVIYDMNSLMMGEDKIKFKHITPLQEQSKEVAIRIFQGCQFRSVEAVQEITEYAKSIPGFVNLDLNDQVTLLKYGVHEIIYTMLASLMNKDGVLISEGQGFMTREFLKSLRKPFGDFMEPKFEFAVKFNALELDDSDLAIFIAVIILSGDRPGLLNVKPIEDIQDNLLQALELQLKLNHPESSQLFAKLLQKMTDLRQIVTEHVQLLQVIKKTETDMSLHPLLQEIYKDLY
Further: assay procedure not described here.

Gamma-aminobutyric acid receptor subunit alpha-1/alpha-2/beta-2/gamma-2, sequence (P14867 whole entry): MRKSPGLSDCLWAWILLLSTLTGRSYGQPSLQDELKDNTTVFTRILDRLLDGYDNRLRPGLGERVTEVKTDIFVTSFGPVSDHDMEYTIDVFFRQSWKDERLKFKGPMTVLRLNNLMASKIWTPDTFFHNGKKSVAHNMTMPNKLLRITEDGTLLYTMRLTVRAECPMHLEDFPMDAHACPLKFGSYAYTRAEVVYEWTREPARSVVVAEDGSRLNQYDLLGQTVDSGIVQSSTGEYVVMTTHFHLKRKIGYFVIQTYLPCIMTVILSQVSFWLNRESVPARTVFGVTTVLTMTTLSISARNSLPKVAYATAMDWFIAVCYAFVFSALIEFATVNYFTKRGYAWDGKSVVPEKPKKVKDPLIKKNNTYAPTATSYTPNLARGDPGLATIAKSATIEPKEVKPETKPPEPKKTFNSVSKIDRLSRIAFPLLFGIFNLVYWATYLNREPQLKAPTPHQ
Gamma-aminobutyric acid receptor subunit alpha-1/alpha-2/beta-2/gamma-2, sequence (P47870 whole entry): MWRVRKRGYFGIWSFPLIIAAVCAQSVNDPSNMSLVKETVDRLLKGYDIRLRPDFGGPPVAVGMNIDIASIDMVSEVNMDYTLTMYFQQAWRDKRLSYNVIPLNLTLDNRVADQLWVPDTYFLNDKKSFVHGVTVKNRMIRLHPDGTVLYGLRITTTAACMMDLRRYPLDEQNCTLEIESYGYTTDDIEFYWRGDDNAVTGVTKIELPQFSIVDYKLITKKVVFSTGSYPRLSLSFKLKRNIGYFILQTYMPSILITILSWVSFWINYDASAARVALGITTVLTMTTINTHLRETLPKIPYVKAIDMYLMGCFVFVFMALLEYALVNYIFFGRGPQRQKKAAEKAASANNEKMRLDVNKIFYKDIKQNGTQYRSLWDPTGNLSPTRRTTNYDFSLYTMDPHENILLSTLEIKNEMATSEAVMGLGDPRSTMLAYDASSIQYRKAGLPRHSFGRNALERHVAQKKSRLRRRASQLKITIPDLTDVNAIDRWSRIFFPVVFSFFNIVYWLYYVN
Gamma-aminobutyric acid receptor subunit alpha-1/alpha-2/beta-2/gamma-2, sequence (P18507 whole entry): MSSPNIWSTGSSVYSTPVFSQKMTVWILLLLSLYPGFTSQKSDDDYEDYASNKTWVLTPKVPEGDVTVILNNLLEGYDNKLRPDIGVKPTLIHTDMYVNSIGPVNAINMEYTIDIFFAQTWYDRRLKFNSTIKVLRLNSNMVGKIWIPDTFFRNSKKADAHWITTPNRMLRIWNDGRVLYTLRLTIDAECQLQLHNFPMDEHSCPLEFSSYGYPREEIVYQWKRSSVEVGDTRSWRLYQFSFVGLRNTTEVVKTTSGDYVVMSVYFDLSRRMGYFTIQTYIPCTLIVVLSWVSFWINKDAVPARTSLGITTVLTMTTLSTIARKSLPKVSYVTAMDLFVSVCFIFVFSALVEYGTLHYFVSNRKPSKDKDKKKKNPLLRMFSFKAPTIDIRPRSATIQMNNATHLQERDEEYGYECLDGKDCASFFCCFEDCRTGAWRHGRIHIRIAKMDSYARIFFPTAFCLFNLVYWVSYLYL
Gamma-aminobutyric acid receptor subunit alpha-1/alpha-2/beta-2/gamma-2, sequence (P47869 whole entry): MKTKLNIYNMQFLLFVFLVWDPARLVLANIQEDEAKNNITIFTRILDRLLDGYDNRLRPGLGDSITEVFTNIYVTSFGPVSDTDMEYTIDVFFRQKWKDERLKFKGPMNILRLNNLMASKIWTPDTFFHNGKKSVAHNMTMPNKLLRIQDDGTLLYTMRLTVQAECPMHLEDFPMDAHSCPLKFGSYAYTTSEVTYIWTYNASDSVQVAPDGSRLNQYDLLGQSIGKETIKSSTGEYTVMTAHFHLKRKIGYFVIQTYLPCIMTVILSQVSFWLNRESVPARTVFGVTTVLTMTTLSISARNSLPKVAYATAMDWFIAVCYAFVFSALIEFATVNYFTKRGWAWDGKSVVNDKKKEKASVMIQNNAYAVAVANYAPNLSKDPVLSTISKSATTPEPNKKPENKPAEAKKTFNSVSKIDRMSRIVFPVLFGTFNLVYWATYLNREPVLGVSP
Sodium channel protein type 5 subunit alpha, sequence (Q14524 whole entry): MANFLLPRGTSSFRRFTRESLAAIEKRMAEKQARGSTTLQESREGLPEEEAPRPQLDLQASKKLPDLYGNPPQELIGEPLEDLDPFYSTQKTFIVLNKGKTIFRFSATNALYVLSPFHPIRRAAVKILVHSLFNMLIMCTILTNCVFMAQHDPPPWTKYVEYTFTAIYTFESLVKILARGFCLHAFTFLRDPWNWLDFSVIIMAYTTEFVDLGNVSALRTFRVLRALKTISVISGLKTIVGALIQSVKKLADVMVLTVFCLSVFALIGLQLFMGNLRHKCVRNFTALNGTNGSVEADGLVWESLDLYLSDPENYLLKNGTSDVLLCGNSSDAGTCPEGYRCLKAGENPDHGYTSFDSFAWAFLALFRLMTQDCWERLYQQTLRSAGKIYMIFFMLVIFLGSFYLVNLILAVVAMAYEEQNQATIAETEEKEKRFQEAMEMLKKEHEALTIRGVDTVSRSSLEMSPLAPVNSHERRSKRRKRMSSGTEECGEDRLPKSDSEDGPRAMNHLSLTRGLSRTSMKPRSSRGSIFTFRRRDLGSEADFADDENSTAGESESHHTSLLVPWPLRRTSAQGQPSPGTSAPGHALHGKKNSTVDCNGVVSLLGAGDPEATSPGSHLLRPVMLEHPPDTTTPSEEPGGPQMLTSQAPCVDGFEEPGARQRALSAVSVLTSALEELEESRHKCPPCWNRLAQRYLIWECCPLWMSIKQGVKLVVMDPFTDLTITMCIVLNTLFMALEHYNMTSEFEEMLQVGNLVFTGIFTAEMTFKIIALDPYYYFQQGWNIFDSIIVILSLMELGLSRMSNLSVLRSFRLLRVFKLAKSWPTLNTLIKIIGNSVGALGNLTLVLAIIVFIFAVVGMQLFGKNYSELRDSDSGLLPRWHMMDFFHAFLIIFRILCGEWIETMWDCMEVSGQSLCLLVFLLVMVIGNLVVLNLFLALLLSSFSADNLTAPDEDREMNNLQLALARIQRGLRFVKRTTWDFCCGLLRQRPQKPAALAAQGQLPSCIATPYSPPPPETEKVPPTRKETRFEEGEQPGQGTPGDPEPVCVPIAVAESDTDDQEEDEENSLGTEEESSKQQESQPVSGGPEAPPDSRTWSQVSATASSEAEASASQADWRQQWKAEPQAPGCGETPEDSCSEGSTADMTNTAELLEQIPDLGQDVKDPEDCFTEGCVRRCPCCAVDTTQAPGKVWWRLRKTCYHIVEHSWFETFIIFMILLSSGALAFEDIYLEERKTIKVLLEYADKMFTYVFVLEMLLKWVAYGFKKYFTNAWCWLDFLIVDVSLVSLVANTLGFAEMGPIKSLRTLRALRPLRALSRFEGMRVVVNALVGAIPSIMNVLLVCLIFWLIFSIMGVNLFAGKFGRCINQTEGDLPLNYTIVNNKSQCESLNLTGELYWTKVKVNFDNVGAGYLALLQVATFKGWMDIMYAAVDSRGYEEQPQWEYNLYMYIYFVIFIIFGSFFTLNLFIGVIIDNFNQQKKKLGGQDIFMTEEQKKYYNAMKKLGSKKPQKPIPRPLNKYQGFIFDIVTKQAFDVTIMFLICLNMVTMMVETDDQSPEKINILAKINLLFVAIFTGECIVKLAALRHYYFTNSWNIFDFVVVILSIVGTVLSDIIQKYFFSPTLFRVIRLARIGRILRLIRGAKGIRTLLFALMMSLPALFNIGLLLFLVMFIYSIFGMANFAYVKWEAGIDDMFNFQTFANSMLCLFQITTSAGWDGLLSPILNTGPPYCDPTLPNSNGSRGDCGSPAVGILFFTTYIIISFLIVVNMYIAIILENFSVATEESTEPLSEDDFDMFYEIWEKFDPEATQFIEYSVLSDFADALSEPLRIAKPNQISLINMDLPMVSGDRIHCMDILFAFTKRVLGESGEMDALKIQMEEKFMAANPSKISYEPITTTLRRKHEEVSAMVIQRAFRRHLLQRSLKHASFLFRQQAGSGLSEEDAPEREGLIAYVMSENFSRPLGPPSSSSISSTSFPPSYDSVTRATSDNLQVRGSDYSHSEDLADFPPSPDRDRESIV

Structure (SMILES)	AC50 (Androgen receptor) [µM]	AC50 (Estrogen receptor) [µM]	AC50 [2] [µM]	further results
OC[C@H]1NC[C@H](O)[C@@H](O)[C@H]1O	> 30			
CCOC(=O)[C@H](CCc1ccccc1)N[C@@H](C)C(=O)N1Cc2ccccc2C[C@H]1C(=O)O		> 30		AC50 [1]: > 30 µM
C=CC1=C(C(=O)O)N2C(=O)[C@@H](NC(=O)/C(=N\O)c3csc(N)n3)[C@H]2SC1		> 30		
CC#CC(=O)N1CCC[C@H]1c1nc(-c2ccc(C(=O)Nc3ccccn3)cc2)c2c(N)nccn12 [ACALABRUTINIB]	> 30		> 30	
O=C(O)COC(=O)Cc1ccccc1Nc1c(Cl)cccc1Cl [ACECLOFENAC]		> 30		
CN(C)CCc1c[nH]c2ccc(CS(=O)(=O)N3CCCC3)cc12 [ALMOTRIPTAN]		> 30		
CC[N+](CC)(CCNC(=O)C(=O)NCC[N+](CC)(CC)Cc1ccccc1Cl)Cc1ccccc1Cl [AMBENONIUM]		> 30		
NCCCNCCSP(=O)(O)O [AMIFOSTINE]		> 30		
NCCCCCC(=O)O [AMINOCAPROIC ACID]		> 10		
CN(C)CCC=C1c2ccccc2CCc2ccccc21 [AMITRIPTYLINE]		> 30	> 30	AC50 [1]: 1.81 µM
CC(=O)Oc1ccccc1C(=O)O [ASPIRIN]	> 30	15.1	> 30	AC50 [1]: > 30 µM
CC(C)NCC(O)COc1ccc(CC(N)=O)cc1 (stereo not drawn) [ATENOLOL]		> 30		
CC(C)C[C@H](NC(=O)[C@H](Cc1ccccc1)NC(=O)c1cnccn1)B(O)O [BORTEZOMIB]		> 30		
CN(C)CCOC(c1ccc(Cl)cc1)c1ccccn1 (stereo not drawn) [CARBINOXAMINE]		> 30		AC50 [3]: > 30 µM
CCN(CC)CCn1c(=O)c(Cc2ccc(OC)cc2)nc2ccccc21 [CAROVERINE]		> 30		
NC(=O)C1(N2CCCCC2)CCN(CCCN2c3ccccc3CCc3ccccc32)CC1 [CARPIPRAMINE]	> 30		> 30	
O=C(Cc1cccs1)N[C@@H]1C(=O)N2C(C(=O)[O-])=C(C[n+]3ccccc3)CS[C@H]12 [CEPHALORIDINE]	> 30			
C[C@H](CCC(=O)O)[C@H]1CC[C@H]2[C@@H]3[C@H](O)C[C@@H]4C[C@H](O)CC[C@]4(C)[C@H]3CC[C@]12C [CHENODIOL]				AC50 [3]: > 30 µM; AC50 [1]: > 50 µM
CN1CCN(C(c2ccccc2)c2ccc(Cl)cc2)CC1 (stereo not drawn) [CHLORCYCLIZINE]			> 30	
CN(C)CCCC1(c2ccc(F)cc2)OCc2cc(C#N)ccc21 (stereo not drawn) [CITALOPRAM]		> 30		AC50 [1]: > 30 µM
CCCCCCCCCCCCCCCC(=O)OC[C@H](COP(=O)([O-])OCC[N+](C)(C)C)OC(=O)CCCCCCCCCCCCCCC [COLFOSCERIL PALMITATE]	> 30			
O=P1(N(CCCl)CCCl)NCCCO1 (stereo not drawn) [CYCLOPHOSPHAMIDE ANHYDROUS]			> 30	
CC(C)Nc1cccnc1N1CCN(C(=O)c2cc3cc(NS(C)(=O)=O)ccc3[nH]2)CC1 [DELAVIRDINE]			> 10	
C[C@@H](CN1CC(=O)NC(=O)C1)N1CC(=O)NC(=O)C1 [DEXRAZOXANE]	> 30			
C[C@]12CC[C@@H]3c4ccc(OC(=O)N(CCCl)CCCl)cc4CC[C@H]3[C@@H]1CC[C@@H]2OP(=O)(O)O [ESTRAMUSTINE PHOSPHATE]	> 30			

Structure (SMILES)	AC50 (Androgen receptor) [µM]	AC50 (Estrogen receptor) [µM]	AC50 [2] [µM]	further results
O=c1[nH]c2ccccc2n1CCN1CCN(c2cccc(C(F)(F)F)c2)CC1 [FLIBANSERIN]	> 30		> 10	
C[C@]12CCC(=O)C=C1CC[C@H]1[C@@H]3CC[C@](O)(C(=O)CO)[C@@]3(C)C[C@H](O)[C@@]12F [FLUDROCORTISONE]		> 30		
CCOC(=O)Nc1ccc(NCc2ccc(F)cc2)nc1N [FLUPIRTINE]		3		
O=C(O)[C@H](O)[C@@H](O)[C@H](O)[C@H](O)CO [GLUCONIC ACID]			> 30	
N#Cc1ccnc(N2C(=O)CC[C@H]2C(=O)N(c2cncc(F)c2)[C@H](C(=O)NC2CC(F)(F)C2)c2ccccc2Cl)c1 [IVOSIDENIB]	> 30		> 30	AC50 [1]: > 50 µM
CNC1(c2ccccc2Cl)CCCCC1=O (stereo not drawn) [KETAMINE]			> 30	
Nc1nnc(-c2cccc(Cl)c2Cl)c(N)n1 [LAMOTRIGINE]				AC50 [1]: > 50 µM
N[C@@H](Cc1cc(I)c(Oc2cc(I)c(O)c(I)c2)c(I)c1)C(=O)O [LEVOTHYROXINE]				AC50 [3]: > 30 µM
CC(=O)NC[C@H]1CN(c2ccc(N3CCOCC3)c(F)c2)C(=O)O1 [LINEZOLID]				AC50 [1]: > 50 µM
CCCCCCO[C@@H](C)c1cccc(-c2csc(NC(=O)c3cc(Cl)c(/C=C(\C)C(=O)O)c(Cl)c3)n2)c1OC [LUSUTROMBOPAG]	> 30			
CS(=O)(=O)Nc1ccc([N+](=O)[O-])cc1Oc1ccccc1 [NIMESULIDE]			> 30	
CCCCCCCC/C=C\CCCCCCCC(=O)O [OLEIC ACID]			> 30	AC50 [3]: > 300 µM
CC1=C(C/C=C(\C)CCC[C@H](C)CCC[C@H](C)CCCC(C)C)C(=O)c2ccccc2C1=O [PHYTONADIONE]			> 30	
NC(=O)C1(N2CCCCC2)CCN(CCCC(=O)c2ccc(F)cc2)CC1 [PIPAMPERONE]			> 30	
COc1cccc2c1C(=O)c1c(O)c3c(c(O)c1C2=O)C[C@@](O)(C(=O)CO)C[C@@H]3O[C@H]1C[C@H](N)[C@H](O[C@@H]2CCCCO2)[C@H](C)O1 [PIRARUBICIN]	> 30			
CC(C)(Oc1ccc(Cl)cc1)C(=O)NC(=O)NCN1CCOCC1 [PLAFIBRIDE]	> 30		> 30	
CC(C)NC[C@H](O)COc1ccc(O)cc1 [PRENALTEROL]	> 30		> 30	
C[C@H](Cn1cnc2c(N)ncnc21)OCP(=O)(O)O [TENOFOVIR ANHYDROUS]		> 30		
COc1cc2c(cc1OC)C1CC(=O)C(CC(C)C)CN1CC2 (stereo not drawn) [TETRABENAZINE]				AC50 [3]: > 30 µM
Cc1ccc(C(C)C)c(O)c1 [THYMOL]			> 30	
CN(C)CCN(Cc1ccccc1)c1ccccn1 [TRIPELENNAMINE]		> 10		
Cc1c(C)c2c(c(C)c1O)CCC(C)(COc1ccc(CC3SC(=O)NC3=O)cc1)O2 (stereo not drawn) [TROGLITAZONE]	5.72	> 30	> 3	
c1cnc2cc3c(cc2n1)[C@@H]1CNC[C@H]3C1 [VARENICLINE]				AC50 [3]: > 30 µM
Cc1cccc(C)c1NC(=O)c1cc(S(N)(=O)=O)c(Cl)cc1O [XIPAMIDE]			> 30	
